Values quoted from earlier work in article PMC7385171, “Molecular engineering of safe and efficacious oral basal insulin” (Nature Communications, 2020).

Conditions: man, 8-week study; oral for the analogue, SC for insulin glargine

insulin glargine
coefficient of variation of fasting plasma glucose: 17.5%
